Experimental findings from patent publication US20110224151A1, “Polymeric Micelle Composition for Treatment of Resistant Cancer and Preparation Method of the Same” (SAMYANG CORPORATION, priority 2008, published 2011) are described below.

Values after ≈ are worked out from the molar mass of the structure shown.

The subject of this assay is DLD-1 colon cancer cells. As to the kind of experiment: Inhibition of P-glycoprotein: paclitaxel cytotoxicity with and without cyclosporin. To be noted: for IC50: Homo sapiens. It counts as cell-based, human.

Broadly, the IC50 is the concentration that inhibits the measured activity by half. Turning to `CC(=O)O[C@H]1C(=O)[C@@]2(C)[C@H]([C@H](OC(=O)c3ccccc3)[C@]3(O)C[C@H](OC(=O)[C@H](O)[C@@H](NC(=O)c4ccccc4)c4ccccc4)C(C)=C1C3(C)C)[C@]1(OC(C)=O)CO[C@@H]1C[C@@H]2O` [paclitaxel], the “decrease of IC50 with cyclosporin as compared to paclitaxel alone” value (1.88 μg/mL cyclosporin, DLD-1 cells) is recorded as 15 times. Also, the IC50 (DLD-1, DLD-1 cells treated with 1.88 μg/mL cyclosporin) was 0.011 µg/mL and the IC50 (DLD-1, paclitaxel administered alone, DLD-1 cells) turned out to be 0.16 µg/mL (≈ 0.187 µM).
